Assay [1] is described as follows: HPLC assay, p-cresol reactivity against a sulfonyl probe mixture. As to conditions: TMG 2.2 equivalents, 0° C. In kind it is physicochemical. On the procedure: The following reagents were prepared and kept at 0° C. prior to use: 0.1 M solution of caffeine in acetonitrile (ACN), 1.0 M solution of n-butylamine, p-cresol, tetramethylguanidine (TMG), acetic acid in ACN, and 10 mM solution of the probes in a mixture of DMF-ACN (v/v=10:90) are made.
(i) p-Cresol reactivity against a probe mixture: A solution of p-cresol (16.5 μmol, 3.3 eq) was premixed with 1.1, 2.2, or 3.3 eq of TMG. To initiate the reaction, the p-cresol/TMG solution was added to a sulfonyl probe mixture of HHS-475/HHS-482/HHS-SF-1 (500 μL, 5 μmol, 1.0 eq each) and the reaction was kept at 0° C. The reaction progress was monitored by taking out a 50.0 μL aliquot of the reaction mixture at various time points followed by addition of a 10 μL quenching solution of acetic acid (0.5 M final, 5.0 μmol) and the internal caffeine standard (0.05 M final, 0.5 μmol). Sample (1.0 μL) was injected and analyzed by reverse-phase HPLC on a Shimadzu 1100 Series spectrometer (Shimadzu, Kyoto, Japan) with UV detection at 254 nm. Reaction progress was evaluated by monitoring consumption of sulfonyl probes because all probes generate a shared p-cresol and n-butylamine product. Chromatographic separation was performed using a Phenomenex Kinetex C18 column (2.6 μm, 50 mm×4.6 mm, Phemonenex, Torrance, California, United States of America). […]

Assay [2] concerns HEK293T soluble proteomes. The assay can be described thus: LC-MS chemical proteomics of probe-modified sites in cell proteomes. In kind it is binding, human. As to conditions: for tyrosine specificity, Y/K ratio of modified sites: LC-MS chemical proteomics, FIG. 4A. On the procedure: (§1) Proteomes were diluted to 2.3 mg/mL in PBS and sample aliquots (432 μL) were treated with sulfonyl-triazole or -fluoride probes at the indicated concentrations (5 μL, 100× stock in DMSO), mixed gently and incubated for 1 h at room temperature. Probe-modified proteomes were subjected to CuAAC conjugation to desthiobiotin-PEG3-azide (10 μL of 10 mM stock in DMSO; final concentration of 200 μM) using TCEP (10 μL of fresh 50 mM stock in water; 1 mM final concentration), TBTA ligand (33 μL of a 1.7 mM 4:1 t-butanol/DMSO stock, 100 μM final concentration), and CuSO4 (10 μL of 50 mM stock, 1 mM final concentration). Samples were mixed by vortexing and then incubated for 1 h at room temperature. Excess reagents were removed by chloroform-methanol extraction as previously described^51. Protein pellets were re-suspended in 500 μL of 6M urea/25 mM ammonium bicarbonate followed by DTT reduction and IAA alkylation as previously described^5. Excess reagents were removed by chloroform/methanol extraction as described above, and the protein pellet was re-suspended in 500 μL of 25 mM ammonium bicarbonate and then digested to peptides using trypsin/Lys-C (7.5 μg in 15 μL of ammonium bicarbonate, sequencing grade from Promega, Madison, Wisconsin, United States of America) was added to the mixture and incubated for 3 hrs at 37° C. Probe-modified peptides were enriched by avidin affinity chromatography, eluted, and prepared for LC-MS analysis as previously described^51.
A top 10 data-dependent acquisition MS method was used.
Sulfonyl-probe modifications of tyrosine, lysine, and other amino acids were included as a variable (common) modification of +635.27374 Da. […] A Byonic score of 300 was applied for a more inclusive initial evaluation of the search results and thereby consider more possible probe-modified sites. MS1 and MS2 spectra corresponding to the highest-scoring tyrosine- and lysine (internal or non-C terminal)-modified sequences (˜50-100 peptides) were manually verified. […] Distinct peptides containing probe-modified amino acid residues (termed sites) were determined by identifying all unique razor protein and site combinations across all of the proteomes tested.
To compare amino acid residues modified by sulfonyl probes, protein and peptide identifications were accomplished as described above with variable (common) modification of +635.27374 Da on the following amino acid residues: cysteine, aspartic acid, glutamic acid, histidine, lysine, methionine, asparagine, glutamine, arginine, serine, threonine, tryptophan, and tyrosine. For these amino acid comparisons, carbamidomethylation (+57.021464 Da) of cysteines was searched as a variable/common modification to allow for the potential of probe modification on cysteines. Comparisons of probe-modified sites across all probes and cell lines tested were performed using the R package ggplot2 (online at tidyverse.org). Venn diagrams for comparisons were generated using the VennDiagram R package^52.
Proteomes were digested with trypsin protease and desthiobiotin-modified peptides enriched by avidin affinity chromatography, released, and analyzed by high-resolution liquid chromatography-mass spectrometry (LC-MS). Probe-modified peptide-spectrum matches (PSMs) that met a quality control confidence criteria of ≥300 Byonic score^31 and ≤5 ppm mass accuracy were selected for further manual evaluation.

For assay [3], the system named is human cell proteomes (HEK293T, A549, DM93, H82, and Jurkat cells). Kind of assay: LC-MS chemical proteomics of probe-modified tyrosine sites across 5 cell proteomes. It counts as binding. The conditions noted are these: HHS-465 and -475 together; 100 μM, 1 hr, 25° C. On the procedure:
as §1, with “Probe-modified peptides were enriched by avidin affinity chromatography, eluted, and prepared for LC-MS analysis as previously described^51.” left out

A further assay deals with HEK293T, Jurkat cells. The assay can be described thus: Live cell chemical proteomic profiling with SuTEx probes. It counts as cell-based, human. The conditions noted are these: 100 μM, 2 hr, 37° C.; membrane and soluble fractions; both probes. The method, then: Cells grown to ˜90% confluency in 10 cm plates were treated with DMSO vehicle or sulfonyl-triazole probe (10 μL of 1000×DMSO stock) in serum-free media for the indicated concentrations and times at 37° C. with 5% CO2. After treatment, cells were washed with cold PBS twice before harvesting and preparation for gel-based chemical proteomic evaluation as described above. For LC-MS studies, protein concentrations were normalized to 2.3 mg/mL and 432 μL (for 1 mg final protein amount) were used for sample preparation as detailed below.
Proteomes were diluted to 2.3 mg/mL in PBS and sample aliquots (432 μL) were treated with sulfonyl-triazole or -fluoride probes at the indicated concentrations (5 μL, 100× stock in DMSO), mixed gently and incubated for 1 h at room temperature. Probe-modified proteomes were subjected to CuAAC conjugation to desthiobiotin-PEG3-azide (10 μL of 10 mM stock in DMSO; final concentration of 200 μM) using TCEP (10 μL of fresh 50 mM stock in water; 1 mM final concentration), TBTA ligand (33 μL of a 1.7 mM 4:1 t-butanol/DMSO stock, 100 μM final concentration), and CuSO4 (10 μL of 50 mM stock, 1 mM final concentration). Samples were mixed by vortexing and then incubated for 1 h at room temperature. Excess reagents were removed by chloroform-methanol extraction as previously described^51. […]

As to `C#CCNC(=O)c1ccc(S(=O)(=O)F)cc1` [HHS-SF-1, 4-(Prop-2-yn-1-ylcarbamoyl)benzenesulfonyl fluoride, reference compound], the “time to consumption of probe by p-cresol” value in assay [1] was more than 90 min. Moreover, in assay [2], the “fold reduction in total number of modified sites compared with HHS-465 and HHS-475” value was approximately 4 fold; the “tyrosine specificity, Y/K ratio of modified sites” value was 2.3.

As to `C#CCNC(=O)c1ccc(S(=O)(=O)n2nccn2)cc1` [HHS-465, 4-((2H-1,2,3-Triazol-2-yl)sulfonyl)-N-(prop-2-yn-1-yl)benzamide], the “tyrosine sites identified in aggregate across 5 cell proteomes” value in assay [3] was ~8,000 sites. Also, the “tyrosine specificity, Y/K ratio of modified sites” value in assay [2] turned out to be 2.5. For the same compound, in the assay with HEK293T, Jurkat cells, the “distinct tyrosine sites measured in live cell studies, in total per cell line” value was ~3,500 sites.

Values taken from patent US12366579B2, “Sulfur-heterocycle exchange chemistry and uses thereof” (University of Virginia Patent Foundation, priority 2019, dated 2025).
